# Source: PMC6792352, “Limited Chemical Structural Diversity Found to Modulate Thyroid Hormone Receptor in the Tox21 Chemical Library” (Environmental Health Perspectives, 2019)
# Where a name gives a salt, the structure may show the parent alone.
# Assay: in vitro
# Details: rat, gh3-tre-luc cells, AC50 (uM) modified / 1000
row,Compound,CC50 at 24 h
1,CC[N+](C)(CC)CCOC(=O)C(O)(c1ccccc1)C1CCCCC1 (stereo not shown) [Oxyphenonium bromide],> 50 µM
2,CCOc1cc(-c2nccc3cc(OC)c(OC)cc23)cc(OCC)c1OCC [Octaverine],28.2 µM
3,"CC(C)(C)C(=O)Cl [2,2-Dimethylpropanoyl chloride]",> 90 µM
4,CCC(=O)c1ccc(O)cc1 [Paroxypropione],> 50 µM
5,CCC(=O)Oc1ccc2c(c1)CC[C@@H]1[C@@H]2CC[C@]2(C)[C@@H](OC(=O)CC)CC[C@@H]12 [Estradiol dipropionate],> 50 µM
6,COC(C(=O)O)c1ccccc1 (stereo not shown) [Methoxyphenylacetic acid],> 90 µM
7,COCC(C)N(C(=O)CCl)c1c(C)csc1C (stereo not shown) [Dimethenamid],> 90 µM
8,"Clc1ccc(Cl)c(Cl)c1Cl [1,2,3,4-Tetrachlorobenzene]",> 90 µM
9,COP(=S)(OC)Oc1ccc(SC)c(C)c1 [Fenthion],> 90 µM
10,CCOC(=O)Cn1cccc1-c1nc(-c2ccc(OC)cc2)c(-c2ccc(OC)cc2)s1 [Pamicogrel],> 50 µM
11,C=CC(=O)OCCC#N [2-Cyanoethyl prop-2-enoate],> 90 µM
12,O=C(O)Cc1ccccc1Oc1ccc(Cl)cc1Cl [Fenclofenac],> 50 µM
13,O=C1OC(=O)C2CC=CCC12 (stereo not shown) [Tetrahydrophthalic anhydride],> 90 µM
14,C=CCc1ccc(O)c(OC)c1 [Eugenol],> 90 µM
15,CCCCCCCCCCCOC(=O)c1ccccc1C(=O)OCCCCCCCCCCC [Diundecyl phthalate],> 50 µM
16,C/C=C/C=N/NC(=O)c1ccncc1 [Crotoniazide],> 50 µM
17,CN1C[C@@H]2C[C@H]1CN2c1cc2c(cc1F)c(=O)c(C(=O)O)cn2C1CC1 [Danofloxacin],> 50 µM
18,C=C[C@]1(C)C[C@@H](OC(=O)CSC(C)(C)CNC(=O)[C@H](N)C(C)C)[C@]2(C)[C@H](C)CC[C@]3(CCC(=O)[C@H]32)[C@@H](C)[C@@H]1O [Valnemulin],2.37 µM
19,O=C(O)[C@H]1CN(C/C=C/P(=O)(O)O)CCN1 [Midafotel],> 50 µM
20,CN(C)c1nc(=O)n(C2CCCCC2)c(=O)n1C [Hexazinone],> 100 µM
21,CC(C)(C)C(=O)OCOP(=O)(COCCn1cnc2c(N)ncnc21)OCOC(=O)C(C)(C)C [Adefovir dipivoxil],> 50 µM
22,CCCCCC1C(=O)CCC1CC(=O)OC (stereo not shown) [Methyl dihydrojasmonate],> 90 µM
23,CC(=O)c1ccc2ccc3ccccc3c2c1 [3-Acetylphenanthrene],> 90 µM
24,CC(=O)OCC(C)C [Isobutyl acetate],> 90 µM
25,CCCCC[C@H](O)/C=C/[C@@H]1[C@H]2C/C(=C/CCCC(=O)O)O[C@H]2C[C@H]1O [Epoprostenol sodium],> 50 µM
26,c1ccc2cnncc2c1 [Phthalazine],> 90 µM
27,CC[C@H]1C[C@H]2[C@@H]3CCC4=CC(=O)CC[C@@H]4[C@H]3CC[C@]2(C)[C@H]1O [Oxendolone],> 50 µM
28,Nc1cc(Cl)cc(C(=O)O)c1Cl [Chloramben],> 90 µM

row,Compound,CC50 at 24 h
1,C[C@@H]1CN([C@H]2CC[C@](C#N)(c3ccc(F)cc3)CC2)CC[C@]1(C(=O)O)c1ccccc1 [Levocabastine hydrochloride],> 20 µM
2,C[N+](C)(C)CC[N+]1(C)Cc2c(Cl)c(Cl)c(Cl)c(Cl)c2C1 [Chlorisondamine chloride],> 50 µM
3,CC(C)CN(C[C@@H](O)[C@H](Cc1ccccc1)NC(=O)O[C@H]1CCOC1)S(=O)(=O)c1ccc(N)cc1 [Amprenavir],> 50 µM
4,O=[N+]([O-])CCO [2-Nitroethanol],> 100 µM
5,COC(=O)c1ccccc1CS(=O)(=O)NC(=O)Nc1nc(OC)cc(OC)n1 [Bensulfuron-methyl],> 90 µM
6,OCC(CO)(CBr)CBr [Pentaerythritol dibromide],> 90 µM
7,"CC(C)[C@H]1CC[C@@H](C)CC1=O (stereo in doubt) [(2R,5R)-5-Methyl-2-(propan-2-yl)cyclohexanone]",> 90 µM
8,"Cc1ccc(C(C)c2ccc(C)c(C)c2)cc1C [1,1-Bis(3,4-dimethylphenyl)ethane]",> 90 µM
9,C=CC(C)(O)CC/C=C(\C)CCC=C(C)C (stereo not shown) [Nerolidol],> 90 µM
10,CO/N=C(\C(=O)N[C@@H]1C(=O)N2C(C(=O)O)=C(Cn3ccc(=N)n3CCO)CS[C@H]12)c1csc(N)n1 [Cefoselis sulfate],> 50 µM
11,CCCOC/C(=N\c1ccc(Cl)cc1C(F)(F)F)n1ccnc1 [Triflumizole],58.4 µM
12,CCN(CC)C(=O)N[C@H]1C[C@@H]2c3cccc4[nH]cc(c34)C[C@H]2N(C)C1 [Terguride],> 50 µM
13,CC(C)C[C@H](NC(=O)[C@@H](COC(C)(C)C)NC(=O)[C@H](Cc1ccc(O)cc1)NC(=O)[C@H](CO)NC(=O)[C@H](Cc1c[nH]c2ccccc12)NC(=O)[C@H](Cc1cnc[nH]1)NC(=O)[C@@H]1CCC(=O)N1)C(=O)N[C@@H](CCCNC(=N)N)C(=O)N1CCC[C@H]1C(=O)NNC(N)=O [Goserelin acetate],> 50 µM
14,"CC(C)(C)C(=O)/C=C/c1ccc(Cl)cc1 [1-(4-Chlorophenyl)-4,4-dimethylpent-1-en-3-one]",> 90 µM
15,CCOC(=O)c1ccc(C2CCC(NC[C@H](O)COc3ccc(O)c(NS(C)(=O)=O)c3)CC2)cc1 (stereo partly shown) [SAR 150640],34.8 µM
16,O=C(Cl)C(Cl)(Cl)Cl [Trichloroacetyl chloride],> 90 µM
17,CC(C)(C)C1CCCCC1=O (stereo not shown) [2-tert-Butylcyclohexanone],> 90 µM
18,CC[C@H]1OC(=O)C[C@@H](O)[C@H](C)[C@@H](O[C@@H]2O[C@H](C)[C@@H](O[C@H]3C[C@@](C)(O)[C@@H](O)[C@H](C)O3)[C@H](N(C)C)[C@H]2O)[C@@H](CC=O)C[C@@H](C)C(=O)/C=C/C(C)=C/[C@@H]1CO[C@@H]1O[C@H](C)[C@@H](O)[C@@H](OC)[C@H]1OC [Tylosin tartrate],> 50 µM
19,c1ccc2c(c1)Sc1ccccc1N2CC1CN2CCC1CC2 (stereo not shown) [Mequitazine],7.76 µM
20,CCN1CCN(c2cc3c(cc2F)c(=O)c(C(=O)O)cn3C2CC2)CC1 [Enrofloxacin],> 50 µM
21,CCCCCC(=O)OCC [Ethyl hexanoate],> 90 µM
22,Cc1c(OCC(F)(F)F)ccnc1C[S+]([O-])c1nc2ccccc2[nH]1 (stereo not shown) [Lansoprazole],> 90 µM
23,CC(=O)OC(C)=O [Acetic anhydride],> 90 µM
24,CC(=O)/C(C)=C/C1C(C)=CCCC1(C)C (stereo not drawn) [alpha-Isomethylionone],> 90 µM
25,CCCN(CCC)C(=O)Cc1c(-c2ccc(Cl)cc2)nc2ccc(Cl)cn12 [Alpidem],> 50 µM
26,"COc1cccc(OC)c1 [1,3-Dimethoxybenzene]",> 90 µM
27,O=c1[nH]c(=O)n([C@H]2C[C@H](O)[C@@H](CO)O2)cc1F [Floxuridine],> 50 µM

# Same assay, conditions: rat, gh3-tre-luc cells, AC50 (uM) modified / 1000, Tox21_110001=Tox21_112166; viability, 1 nM T3 present, 24 h
row,Compound,CC50 at 24 h
1,CC1NCCOC1c1ccccc1 (stereo not shown) [Phenmetrazine hydrochloride],> 50 µM

# Same assay, conditions: rat, gh3-tre-luc cells, AC50 (uM) modified / 1000, Tox21_110001=Tox21_112896; viability, 1 nM T3 present, 24 h
row,Compound,CC50 at 24 h
1,CC(Cc1ccccc1)NCCn1cnc2c1c(=O)n(C)c(=O)n2C (stereo not shown) [Fenethylline hydrochloride],> 90 µM

# Same assay, conditions: rat, gh3-tre-luc cells, AC50 (uM) modified / 1000, Tox21_110001=Tox21_200619; viability, 1 nM T3 present, 24 h
row,Compound,CC50 at 24 h
1,CCCBr [1-Bromopropane],> 90 µM

# Same assay, conditions: rat, gh3-tre-luc cells, AC50 (uM) modified / 1000, Tox21_110001=Tox21_200709; viability, 1 nM T3 present, 24 h
row,Compound,CC50 at 24 h
1,"OCC(Br)CBr (stereo not shown) [2,3-Dibromopropanol]",> 90 µM

# Same assay, conditions: rat, gh3-tre-luc cells, AC50 (uM) modified / 1000, Tox21_110001=Tox21_201723; viability, 1 nM T3 present, 24 h
row,Compound,CC50 at 24 h
1,"Nc1ccc(Cc2ccc(N)cc2)cc1 [4,4'-Methylenedianiline]",> 90 µM

# Same assay, conditions: rat, gh3-tre-luc cells, AC50 (uM) modified / 1000, Tox21_110001=Tox21_301964; viability, 1 nM T3 present, 24 h
row,Compound,CC50 at 24 h
1,CON(C)C(=O)Nc1ccc(Br)cc1 [Metobromuron],> 90 µM
